Measured values as given in patent US20130197032A1, “[…] COMPOUNDS FOR THE TREATMENT OF NEUROLOGICAL AND […] DISORDERS” (A. CARLSSON RESEARCH AB, priority 2010, published 2013).
Several values for one entry are separate records, joined by “and”; a condition that tells them apart may be missing. Equal values may be shown once. Read-outs that look alike come from different tables or passages of the source.

Key:
[1] = test system: drug naive mice; experiment: Head twitch induction in mice; type: in vivo; conditions: DOI 1 mg/kg ip, OSU6162 enantiomers 9.375-300 μmol/kg ip, 10 min before registration
Procedure: The animals used in the head twitch experiments were individually placed in Macrolon type II cages and allowed to habituate to these test cages during 30 minutes before the video registration of behavior began. […] The animals were videotaped for 10 minutes; the behavior was scored during the first 5 minutes. The number of head twitches was counted from the videotapes by a person blind to the treatment.
In FIG. 5, the number of head twitches produced during 5 minutes is shown. The mice were habituated to the test cages during 30 minutes before the video registration of behavior began. […] Shown are means and SEM, n=6-12.

[2] = test system: reserpine-pretreated mice; experiment: Motor activity in monoamine-depleted (reserpine-pretreated) mice, video tracking; conditions: for antagonism of motor stimulation induced by (+)-OSU6162 250 μmol/kg ip / antagonism of motor stimulation induced by (−)-OSU6162 250 μmol/kg ip: haloperidol 1 mg/kg ip, raclopride 20 mg/kg sc, M100907 1 mg/kg ip, SCH23390 0.3 mg/kg sc, SCH39166 0.1-0.9 mg/kg sc
[3] = target: T1, human 5-HT2A receptors (Homo sapiens, UniProt P28223); experiment: Phosphatidyl inositol (PI) hydrolysis assay at 5-HT2A; type: cell-based; set-up: expressed in transfected cells
Procedure: After lysing the cells with 50 μl of 0.1M formic acid, 20 μl each cell lysate was mixed with 80 μl (1 mg) RNA Binding YSi-SPA beads (GE Healthcare, Chalfont St. Giles, UK) on PICO plates (PerkinElmer) and counted on a TopCount (Packard).
Each curve is representative of at least three or more independent experiments.

[4] = target: T2, D2 receptors (Homo sapiens, UniProt P14416); experiment: GTPγS binding assay at D2; type: biochemical; set-up: expressed in transfected cells
Procedure: Cells were not centrifuged following cell scraping, but were collected directly into the ice-cold nitrogen cavitation chamber.
50 μl/well Wheat-Germ Agglutinin SPA beads (Perkin Elmer, Shelton, Conn.) were added to the plates and the plates incubated for 1 hour. The plates were then centrifuged at 1,000×g for 10 minutes and read on a Top Count NXT (Perkin Elmer, Shelton, Conn.).
To relate the results observed in R-SAT™ to a more conventional assay system, these ligands were also tested for the ability to induce GTPγS binding through D2 receptors.

[5] = target: T1, human 5-HT2A receptors; experiment: R-SAT functional assay at 5-HT2A; type: cell-based; set-up: expressed in transfected cells; host or cells: NIH-3T3; conditions: for EC50: read-out: R-SAT pEC50 (converted)
[6] = target: T2, D2 receptors; experiment: R-SAT functional assay at D2; type: cell-based; set-up: expressed in transfected cells; host or cells: NIH-3T3
[7] = target: T1, human 5-HT2A receptors; experiment: BRET2 beta-arrestin-2 recruitment assay at 5-HT2A; type: cell-based; set-up: expressed in transfected cells; host or cells: HEK-293T
Procedure: (§1) BRET-2 signals were measured using the multiplate reader Mithras 940LB (Berthold Technologies, Bad Wildbad, Germany) and were calculated as the ratio between the Renilla luciferase emission and the GFP2 emission corrected by the background emissions of non-transfected cells.

[8] = target: T2, D2 receptors; experiment: BRET2 beta-arrestin-2 recruitment assay at D2; type: cell-based; set-up: expressed in transfected cells; host or cells: HEK-293T
Procedure: as §1
Each curve is representative of two to three independent experiments.

[9] = target: T3, human 5-HT1E receptor (Homo sapiens, UniProt P28566); experiment: R-SAT assay 5-HT1E; type: cell-based; conditions: Table 3, 5-HT1E
T3 construct: expressed in transfected cells; host or cells: NIH/3T3

[10] = target: T4, human 5-HT1F receptor (Homo sapiens, UniProt P30939); experiment: R-SAT assay 5-HT1F; type: cell-based; conditions: Table 3, 5-HT1F
T4 construct: expressed in transfected cells; host or cells: NIH/3T3
T4 sequence (P30939 1-366): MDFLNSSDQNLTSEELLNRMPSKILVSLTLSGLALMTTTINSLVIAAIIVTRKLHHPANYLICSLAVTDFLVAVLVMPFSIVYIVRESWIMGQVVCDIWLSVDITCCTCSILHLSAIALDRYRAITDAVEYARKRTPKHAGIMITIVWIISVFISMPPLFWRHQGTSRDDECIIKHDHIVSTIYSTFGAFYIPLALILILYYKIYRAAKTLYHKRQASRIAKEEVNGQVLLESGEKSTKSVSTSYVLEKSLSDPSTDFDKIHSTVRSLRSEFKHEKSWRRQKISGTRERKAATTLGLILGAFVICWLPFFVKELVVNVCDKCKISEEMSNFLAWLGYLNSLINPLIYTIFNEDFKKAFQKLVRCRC

[11] = target: T5, human H1 receptor (Homo sapiens, UniProt P35367); experiment: R-SAT assay H1; type: cell-based; conditions: Table 3, H1; percent response of reference Histamine
T5 construct: expressed in transfected cells; host or cells: NIH/3T3

[12] = test system: habituated rats; experiment: Locomotion in habituated rats, photocell activity boxes; conditions: habituated rats
Procedure: Motor activity experiments in both active and habituated rats were performed on male Sprague-Dawley rats (Charles River, Germany) weighing 280-320 g. Prior to testing, rats were housed in groups of four or five in ventilated Macrolon type IV cages for approximately one week.
Rats were housed in a normal daylight cycle and the experiments were carried out during daytime. […] During the following 5 minutes test drugs were injected, after which the rats were returned to the boxes for another 60 minutes. Five by five rows of photocell beams at floor level allowed a computer based-system to register horizontal activity. Motor activity is presented as accumulated number of unrepeated beam breaks, i.e. several consecutive breakings of one beam is counted as one beam break. The software was set to register behavior from the rats' first introduction into the arena until it was finally removed from the box, i.e. for 110 or 130 minutes.
Locomotion was measured as accumulated unrepeated beam breaks. […] This was followed by 60 minutes of registration. Data are calculated from a 30 minutes period, 5-35 minutes after injection, and plotted as means and SEM. […] Data were calculated from a 30 minutes period, 5-35 minutes after injection.
The effect of haloperidol on the locomotor stimulation was also studied in habituated rats (see FIG. 10). Locomotion was measured as accumulated unrepeated beam breaks. Rats were given haloperidol (0.05, 0.2, 0.5 mg/kg, sc) and were then allowed to habituate for 65 minutes. […] Data are calculated from a 30 minutes period, taken 5-35 minutes after injection, and plotted as means and SEM. N=4-5.

[13] = percent response of reference ligand 5-HT, mean ± SEM
[14] = percent response of reference ligand dopamine, mean ± SEM
[15] = Table 1, negative logarithm of EC50 in molar (M), NIH3T3 cells, mean ± SEM
[16] = Table 2, percent response of reference ligand pergolide, mean ± SEM
[17] = negative logarithm of EC50 in molar (M), HEK 293T cells, mean ± SEM
[18] = negative logarithm of EC50 in molar
[19] = percent response of reference BRL 54443
[20] = reserpine-pretreated mice, M100907 0.1 and 1 mg/kg ip 30 minutes prior
[21] = haloperidol 0.05, 0.2 and 0.5 mg/kg sc

T1 sequence (P28223 whole entry): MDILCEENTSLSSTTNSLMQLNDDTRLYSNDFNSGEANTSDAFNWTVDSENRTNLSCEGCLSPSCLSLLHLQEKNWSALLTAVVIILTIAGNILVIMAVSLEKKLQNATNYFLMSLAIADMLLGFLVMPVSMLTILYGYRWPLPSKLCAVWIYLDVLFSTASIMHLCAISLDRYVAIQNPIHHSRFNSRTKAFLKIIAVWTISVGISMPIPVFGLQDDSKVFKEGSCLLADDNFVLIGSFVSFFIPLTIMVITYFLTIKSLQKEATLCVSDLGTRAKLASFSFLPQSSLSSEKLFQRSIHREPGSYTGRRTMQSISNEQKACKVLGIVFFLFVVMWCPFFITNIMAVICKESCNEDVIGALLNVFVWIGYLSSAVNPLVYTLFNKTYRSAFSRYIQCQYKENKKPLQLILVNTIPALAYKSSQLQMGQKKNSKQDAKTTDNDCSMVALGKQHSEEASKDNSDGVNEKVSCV
T2 sequence (P14416 1-414 isoform P14416-2): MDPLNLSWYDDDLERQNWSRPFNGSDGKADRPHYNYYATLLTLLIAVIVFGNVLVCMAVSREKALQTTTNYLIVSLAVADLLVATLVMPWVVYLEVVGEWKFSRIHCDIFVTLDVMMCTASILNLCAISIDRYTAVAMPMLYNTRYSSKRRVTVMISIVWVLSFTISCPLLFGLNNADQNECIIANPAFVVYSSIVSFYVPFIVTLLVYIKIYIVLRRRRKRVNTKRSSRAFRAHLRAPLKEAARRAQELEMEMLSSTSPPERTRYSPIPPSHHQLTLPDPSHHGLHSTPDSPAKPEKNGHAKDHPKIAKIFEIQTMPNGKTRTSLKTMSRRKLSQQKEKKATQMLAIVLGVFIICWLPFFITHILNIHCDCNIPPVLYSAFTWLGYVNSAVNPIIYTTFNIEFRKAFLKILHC
T3 sequence (P28566 whole entry): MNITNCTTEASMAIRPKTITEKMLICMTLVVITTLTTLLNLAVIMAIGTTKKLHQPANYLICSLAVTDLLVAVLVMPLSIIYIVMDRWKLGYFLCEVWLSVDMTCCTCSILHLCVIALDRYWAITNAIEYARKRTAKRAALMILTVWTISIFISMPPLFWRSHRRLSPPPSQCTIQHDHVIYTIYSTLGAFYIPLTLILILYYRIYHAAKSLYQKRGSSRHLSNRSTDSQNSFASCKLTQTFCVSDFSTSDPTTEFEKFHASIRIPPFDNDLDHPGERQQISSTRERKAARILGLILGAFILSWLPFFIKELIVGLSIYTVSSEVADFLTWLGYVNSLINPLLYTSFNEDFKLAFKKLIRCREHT
T5 sequence (P35367 whole entry): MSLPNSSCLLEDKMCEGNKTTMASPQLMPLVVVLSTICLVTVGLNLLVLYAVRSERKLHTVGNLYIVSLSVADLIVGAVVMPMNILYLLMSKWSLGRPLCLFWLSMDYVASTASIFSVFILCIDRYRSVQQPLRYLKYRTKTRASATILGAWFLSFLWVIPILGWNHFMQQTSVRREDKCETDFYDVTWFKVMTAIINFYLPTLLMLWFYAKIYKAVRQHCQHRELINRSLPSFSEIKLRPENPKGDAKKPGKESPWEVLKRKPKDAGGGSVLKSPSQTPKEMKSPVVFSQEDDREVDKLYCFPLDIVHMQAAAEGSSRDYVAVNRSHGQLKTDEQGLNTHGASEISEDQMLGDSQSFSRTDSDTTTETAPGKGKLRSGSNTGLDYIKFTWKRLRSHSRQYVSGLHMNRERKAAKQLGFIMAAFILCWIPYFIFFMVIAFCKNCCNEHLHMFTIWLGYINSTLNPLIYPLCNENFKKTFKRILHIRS

COc1cc(CC(C)N)c(OC)cc1I.Cl (racemic) [DOI, (±)-1-(2,5-dimethoxy-4-iodophenyl)-2-aminopropane hydrochloride, reference compound]
head twitches produced during 5 minutes [1]: induces head twitches in the mouse | motor activity (distance moved, DM 1.5) ([2]; reserpine 10 mg/kg ip 20 h prior, test drug ip just prior to recording, first 30 minutes, vs reserpine only group): able to induce locomotor stimulation in reserpine-pretreated mice

CCCN1CCCC(c2cccc(O)c2)C1 (single isomer, unassigned; (+)) [(+)-3-PPP, [3-(3-hydroxyphenyl)-N-n-propyl]piperidine]
EC50 ([3]; negative logarithm of EC50 in molar (M), HEK 293T cells, mean ± SEM, read-out: PI Hydrolysis pEC50 (converted)): > 1e-05 M | PI Hydrolysis Eff (%) [3, 13]: 17 — % | agonist profile in GTPγS binding assays at D2 receptors [4]: full agonist | GTPγS Eff % [4, 14]: 102 ± 4% | R-SAT Eff(%) [5]: 87 ± 26% | EC50 [5, 15]: 6.31e-06 M | R-SAT Eff(%) [6, 16]: 101 ± 8% | EC50 ([7]; negative logarithm of EC50 in molar (M), HEK 293T cells, mean ± SEM, read-out: BRET2 pEC50 (converted)): > 0.0001 M | BRET2 Eff % [7, 13]: 42 ± 5% | agonist profile in BRET2 assays at D2 receptors [8]: partial agonists | BRET2 Eff % [8, 14]: 58 ± 2%

CCCN1CCCC(c2cccc(O)c2)C1 (single isomer, unassigned; (-)) [(−)-3-PPP, [3-(3-hydroxyphenyl)-N-n-propyl]piperidine]
PI Hydrolysis Eff (%) [3, 13]: 5 — % | agonist profile in GTPγS binding assays at D2 receptors [4]: strong partial agonists | GTPγS Eff % [4, 14]: 77 ± 4% | R-SAT Eff(%) [5]: 47 ± 12% | EC50 [5, 15]: 3.98e-06 M | R-SAT Eff(%) [6, 16]: 77% and 77 ± 4% | BRET2 Eff % [7, 13]: 10 ± 4% | BRET2 Eff % [8, 14]: 2% and 2 ± 0%

NCCc1c[nH]c2ccc(O)cc12 [5-HT, 5-hydroxytryptamine]
PI Hydrolysis Eff (%) [3]: 100 ± 0% | BRET2 Eff % [7]: 100 ± 5%

CCN(CC)C(=O)N[C@H]1C[C@@H]2c3cccc4[nH]cc(c34)C[C@H]2N(C)C1 [(+)-Terguride]
PI Hydrolysis pEC50 [3, 17]: 9.1 ± 0.2 | PI Hydrolysis Eff (%) [3, 13]: 52 ± 8% | GTPγS pEC50 [4]: 9.3 ± 0.2 | agonist profile in GTPγS binding assays at D2 receptors [4]: strong partial agonists | GTPγS Eff % [4, 14]: 88 ± 8% | R-SAT pEC50 [5, 15]: 9.8 ± 0.9 | R-SAT Eff(%) ([5]; Table 1, percent response of reference ligand 5-CT, mean ± SEM): 89 ± 13% | R-SAT Eff(%) [6]: 92 ± 20% | R-SAT pEC50 ([6]; Table 2, negative logarithm of EC50 in molar, NIH3T3 cells, mean ± SEM): 11.1 ± 0.2 | BRET2 pEC50 [7, 17]: 7.0 ± 0.0 | BRET2 Eff % [7, 13]: 42 ± 2% | BRET2 pEC50 ([8]; negative logarithm of EC50 in molar, HEK293T cells, mean ± SEM): 7.2 ± 0.1 | BRET2 Eff % [8, 14]: 8 ± 1% | BRET2 Eff % ([8]; percent response of reference ligand dopamine, mean ± SEM, listed as (+)-terguride): 8%

CN1CCC(c2c[nH]c3ccc(O)cc23)CC1 [BRL 54443, reference compound]
pEC50 [9, 18]: 6.7 | Eff (%) [9, 19]: 100% | pEC50 [10, 18]: 6.8 | Eff (%) [10, 19]: 100%

NCCc1c[nH]cn1 [Histamine, reference compound]
Eff (%) [11]: 100%

COc1cccc([C@H](O)C2CCN(CCc3ccc(F)cc3)CC2)c1OC [M100907, (+)-(R)-1-[1-[2-(4-fluorophenyl)ethyl]piperidin-4-yl]-1-(2,3-dimethoxyphenyl)methanol]
reversal of (−)-OSU6162-induced locomotor stimulation ([12]; M100907 1 mg/kg ip, 15-35 minute interval): significant reversal | counteraction of locomotor stimulation induced by (+)-OSU6162 50 μmol/kg sc ([12]; M100907 0.5 and 1 mg/kg ip, 5-35 minute interval): significantly counteracted | effect of three doses on motor activity increase caused by 250 μmol/kg of (−)-OSU6162 ([2]; reserpine-pretreated mice, M100907 0.01, 0.1, 1 mg/kg ip 30 minutes prior): Only the 1 mg/kg dose significantly decreased motor activity | antagonism of locomotor stimulation induced by DOI 2.5 mg/kg ([2]; reserpine-pretreated mice, M100907 0.01, 0.1, 1 mg/kg ip 30 minutes prior, all doses significant): highly effective in antagonizing the locomotor stimulant effects of 2.5 mg/kg of DOI | reversal of locomotor stimulation induced by 125 μmol/kg of (+)-OSU6162 [2, 20]: effectively reversed | reversal of locomotor stimulation induced by 125 μmol/kg of (−)-OSU6162 [2, 20]: effectively reversed | antagonism of motor stimulation induced by (+)-OSU6162 250 μmol/kg ip ([2]; reserpine-pretreated mice): effectively antagonized this response | antagonism of motor stimulation induced by (−)-OSU6162 250 μmol/kg ip ([2]; reserpine-pretreated mice): effectively antagonized

Clc1ccc2c(c1)N=C(N1CCNCC1)c1ccccc1N2 [NDMC, 8-chloro-11-(1-piperazinyl)-5H-dibenzo[b,e][1,4]diazepine]
EC50 ([4]; negative logarithm of EC50 in molar, HEK293T membranes, mean ± SEM, read-out: GTPγS pEC50 (converted)): 0.0398 µM | GTPγS Eff % [4, 14]: 18 ± 1% | R-SAT Eff(%) [6]: 33 ± 2% | EC50 ([6]; Table 2, negative logarithm of EC50 in molar, NIH3T3 cells, mean ± SEM, read-out: R-SAT pEC50 (converted)): 0.0126 µM | agonist profile in BRET2 assays at D2 receptors [8]: no agonist activity | BRET2 Eff % [8, 14]: 0 ± 0%

CCCN[C@H]1CCc2nc(N)sc2C1 [Pramipexole, (6S)—N^6-propyl-4,5,6,7-tetrahydro-1,3-benzothiazole-2,6-diamine]
GTPγS Eff % [4]: 87 ± 6% | R-SAT Eff(%) [5]: 48 ± 9% | R-SAT Eff(%) [6]: 84 ± 9% | BRET2 Eff % [7]: 52 ± 3% | BRET2 Eff % [8]: 104 ± 1% | agonist profile in BRET2 assays at D2 receptors [8]: full agonist

CN1CCc2cc(Cl)c(O)cc2[C@H]2c3ccccc3CC[C@@H]21 [SCH39166]
antagonism of motor stimulation induced by (+)-OSU6162 250 μmol/kg ip ([2]; reserpine-pretreated mice): did not significantly influence the motor activation | antagonism of motor stimulation induced by (−)-OSU6162 250 μmol/kg ip ([2]; reserpine-pretreated mice): did not significantly influence the motor activation

O=C(CCCN1CCC(O)(c2ccc(Cl)cc2)CC1)c1ccc(F)cc1 [haloperidol]
antagonism of locomotor stimulation induced by (+)-OSU6162 50 μmol/kg sc [12, 21]: effectively antagonized the locomotor stimulation | antagonism of locomotor stimulation induced by (−)-OSU6162 50 μmol/kg sc [12, 21]: effectively antagonized the locomotor stimulation | antagonism of motor stimulation induced by (+)-OSU6162 250 μmol/kg ip ([2]; reserpine-pretreated mice): None of the dopaminergic antagonists, i e SCH23390 (0.3 mg/kg), raclopride (20 mg/kg) or haloperidol (1 mg/kg), could antagonize | antagonism of motor stimulation induced by (−)-OSU6162 250 μmol/kg ip ([2]; reserpine-pretreated mice): could not antagonize

CCN1CCC[C@H]1CNC(=O)c1c(O)c(Cl)cc(Cl)c1OC [raclopride]
antagonism of motor stimulation induced by (+)-OSU6162 250 μmol/kg ip ([2]; reserpine-pretreated mice): None of the dopaminergic antagonists, i e SCH23390 (0.3 mg/kg), raclopride (20 mg/kg) or haloperidol (1 mg/kg), could antagonize | antagonism of motor stimulation induced by (−)-OSU6162 250 μmol/kg ip ([2]; reserpine-pretreated mice): could not antagonize
